Data as given in PMC4038613, “A New Class of Multimerization Selective Inhibitors of HIV-1 Integrase” (PLoS Pathogens, 2014).
Like-named read-outs stand apart in the source and are kept apart here.

Assays:
[1] = system: initiation of reverse transcription; experiment: tRNALys3 primer extension assay; type: biochemical, HIV-1; conditions: virions produced with 1 µM KF116
in vitro = type: cell-based
Experimental: The cytotoxcity assays were performed as described previously. The fitted dose-response curves were generated to calculate EC50 or CC50 using Origin software (OriginLab, Inc.).

[2] = system: VSV-G pseudotyped HIV-1-Luc; type: cell-based
HIV-1 virions [3] = experiment: Virion RNA packaging; type: cell-based; conditions: 1 µM KF116
Experimental: HEK293T cells (2×10^6 cells/100 mm culture dish in 10 ml of complete medium) were transfected with HIV-1 provirus (pNL4-3) and cultured for 24 h to ensure expression of the provirus as described above. Next, the cells were treated with the indicated inhibitor or diluent control (DMSO) for 1 h. The culture supernatant was replaced with fresh complete medium containing either the inhibitor or DMSO, and cells were then cultured for another 24 h to allow for the production of HIV-1 particles in the presence of the inhibitor or diluent control. The virus containing cell-free supernatant was collected, filtered through a 0.45 µm filter, and concentrated over a 25% sucrose cushion by ultra-centrifugation at 28,000 rpm for 2 h at 4°C in SW41 rotor (Beckman). […] RNA was isolated from the pelleted virions and subsequent cDNA preparations were used for gag quantitative PCR as described above. Relative virion RNA packaging was calculated by normalizing virion Gag RNA copy numbers to Gag p24.
In parallel, aliquots of cell-free virus-containing supernatant were used to measure the amount of viral particles produced using HIV-1 Gag p24 ELISA. Virion RNA packaging was calculated by normalizing virion Gag RNA copy numbers to Gag p24. […]

HIV-1 virions [4] = type: cell-based; conditions: virions produced in presence of 1 µM KF116
IN = target: T1, IN (Human immunodeficiency virus type 1 group M subtype B, UniProt P12497); experiment: DLS assay of recombinant IN multimerization; type: biochemical, HIV-1
T1 construct: DLS analysis of KF116-induced multimerization of recombinant IN
Experimental: (§1) (A) DLS analysis of KF116-induced multimerization of recombinant IN. […] The indicated volumes of cross-linked reaction products were resolved by SDS-PAGE and immunoblotted with HIV-1 IN antibody. The bands corresponding to IN “monomer”, “dimer”, and “higher order oligomers” are indicated.
DLS signals were recorded at room temperature using a Malvern Nano series zetasizer instrument.

HIV-1MJ4 = experiment: Antiviral assay against HIV-1 clade C (pMJ4); type: cell-based; conditions: Human immunodeficiency virus 1, IN residue Ala125, read-out: IC50 for inhibition of HIV-1MJ4 replication
[5] = system: VSV-G pseudotyped HIV-1-Luc in PSIP1 KO HEK293T cells; experiment: microbe, parasite or virus in culture; type: cell-based; conditions: for EC50: Human immunodeficiency virus 1, HEK-293T
IN-LEDGF/p75 = IN-LEDGF/p75 (Human immunodeficiency virus type 1 group M subtype B, UniProt P12497); experiment: HTRF-based IN-LEDGF/p75 binding assay; parameters: species or system HIV-1
Experimental: HTRF-based IN multimerization and IN-LEDGF/p75 binding assays were carried out as described previously [33].

A128T IN HIV-1NL4-3 = experiment: A128T HIV-1 infectivity in TZM-bl cells; type: cell-based; conditions: particles produced in presence of inhibitor
[6] = system: VSV-G pseudotyped HIV-1-Luc in wild type HEK293T cells; experiment: microbe, parasite or virus in culture; type: cell-based; conditions: Human immunodeficiency virus 1, HEK-293T
IN in HIV-1 virions = IN in HIV-1 virions (Human immunodeficiency virus type 1 group M subtype B, UniProt P12497); experiment: Virion-associated IN cross-linking assay (BS3); type: cell-based; conditions: virions from cells treated with 1 µM KF116
Experimental: as §1
The IN cross-linking assay was performed as described previously. Briefly, concentrated virions equivalent to 50 ng of HIV-1 p24 were cross-linked with 50 µM bis(sulfosuccinimidyl)suberate (BS^3) cross-linking reagent (Thermo Scientific). Subsequent cross-linked reaction products were quenched and resolved by SDS-PAGE (4–12%, Invitrogen) and immunoblotted.

HIV-1 IN = HIV-1 IN (Human immunodeficiency virus type 1 group M subtype B, UniProt P12497); experiment: biochemical
Experimental: HTRF-based IN multimerization and IN-LEDGF/p75 binding assays were carried out as described previously [33]. The HTRF signal was recorded using a Perkin Elmer Multimode EnSpire plate reader.

virion-associated RT = experiment: Virion-associated Reverse Transcriptase (RT) assay; type: biochemical, HIV-1; conditions: virions produced with 1 µM KF116
Experimental: Virions generated in the presence of inhibitor or diluent control (DMSO) was concentrated over 25% sucrose cushion. The virion-associated RT activity assay was performed as described previously, [81] with minor changes. Briefly, equivalent amounts of concentrated virions (based on HIV-1 p24 ELISA) were incubated with RT buffer, containing 50 mM Tris (pH 7.8), 75 mM KCL, 5 mM MgCl2, 2 mM DTT, 0.05% Nonidet P-40 (v/v), 5 µg/ml Poly r(A). Poly d(T)12–18, and 10 µCi of α-^32P dTTP, in 35 µl final volume. The reactions were incubated at room temperature for 3 h. Duplicate 10 µl of the final reactions were blotted onto a 96-well DEAE Filtermat paper (Wallac-Perkin Elmer), dried, washed and processed as described previously.
The initiation of reverse transcription from total viral RNA was measured using an in vitro HIV-1 reverse transcription reaction, which extends tRNA^Lys3 primer on viral RNA template by +6-nt. The final reaction products were resolved by PAGE and detected by phosphorimager analysis. (Upper panel) A representative image of the 6-nt extension products is shown. (Lower panel) The bar graph represents quantification of bands from the upper panel using ImageJ software. The signal intensity obtained for the non-treated (DMSO) sample was set to 100%. […] Equivalent amounts of concentrated virions, based on HIV-1 p24 ELISA, were analyzed for virion-associated RT activity. […]

[7] = system: LEDGF/p75-dependent HIV-1 integration; experiment: HIV-1 integration site distribution (ligation-mediated PCR, 454-pyrosequencing); type: cell-based
[8] = Target, 5 µM, *** P<0.001 vs DMSO
[9] = target cells, 10 µM, *** P<0.001 vs DMSO

Cc1nc(-c2nc3ccc(Cl)cc3[nH]2)c(C)c(-c2ccccc2)c1C(OC(C)(C)C)C(=O)O (stereo not drawn) [KF116]
effect on annealing of tRNALys3 primer to viral RNA template (primer extension) [1]: did not significantly affect
CC50 (in vitro): > 100 µM
effect on replication intermediates in target cells of virions produced in presence of inhibitor [2]: sharply reduced levels of early and late RT products
effect on replication intermediates when inhibitor added to target cells [2]: had no effects on reverse transcription, integration, levels of 2-LTRs, or viral expression
effect on viral genomic RNA packaging (HIV-1 virions [3]): did not affect
eccentric cores among mature virions (HIV-1 virions [4]): ~95%
DLS particle size diameter, 30 min (IN; 1 µM KF116, 200 nM IN): 1106 nm
DLS particle size diameter, 120 min (IN; 1 µM KF116, 200 nM IN): 1281 nm
DLS particle size diameter, immediately upon addition (2 minutes) (IN; 1 µM KF116, 200 nM IN): 142 nm
DLS signal of inhibitor alone (self-aggregation in aqueous solution) (IN; only KF116, no IN): no signal was recorded
IC50 (HIV-1MJ4): 0.127 ± 0.01 µM
effect of complete loss of LEDGF/p75 protein in virus-producer cells on IC50 values [5]: did not alter
EC50 ([5]; read-out: EC50, KO producer cells): ~0.075 µM
EC50 ([5]; read-out: EC50, KO target cells): ~1.4 µM
IC50 (IN-LEDGF/p75): 5.03 ± 0.36 µM
A128T IN HIV-1NL4-3 replication in infected cells (A128T IN HIV-1NL4-3): effectively impaired
EC50 ([6]; read-out: EC50, WT producer cells): ~0.069 µM
EC50 ([6]; read-out: EC50, WT target cells): > 50 µM
IN multimerization in virions after BS3 cross-linking (IN in HIV-1 virions): levels of IN dimers increased and new slower migrating bands were observed
EC50 (HIV-1 IN): 0.086 ± 0.006 µM
effect on virion-associated RT activities (virion-associated RT): no effects
% in RefSeq (HIV-1 integration frequency) ([7]; Producer, 100 nM): 82.67%
% in known genes (HIV-1 integration frequency) ([7]; Producer, 100 nM): 83.79%
% in RefSeq (HIV-1 integration frequency) [7, 8]: 81.17%
% in known genes (HIV-1 integration frequency) [7, 8]: 82.38%
% in RefSeq (HIV-1 integration frequency) [7, 9]: 83.17%
% in known genes (HIV-1 integration frequency) [7, 9]: 84.31%
